Measurements as given in patent publication US20200038399A1, “FORMULATIONS, METHODS, KIT, AND DOSAGE FORMS FOR TREATING BACTERIAL INFECTION” (Motif BioSciences Inc., priority 2016, published 2020).

What was measured:
[1] = tested on: Klebsiella pneumoniae ATCC 33495; experiment: checkerboard synergy assay with iclaprim; assay type: cell-based; settings: antibiotic in combination with iclaprim; K. pneumoniae 33495
Experimental: (§1) The synergistic potential of iclaprim against Gram-positive and Gram-negative bacteria was determined using the checkerboard assay as described in Eliopoulos GM and Moellering, Jr. RC (1991), Antimicrobial combinations, pp. 432-492, in V. Lorian (ed.), Antibiotics in laboratory medicine, 3rd Ed., The Williams & Wilkins Co., Baltimore, the entire disclosure of which is herein incorporated by reference, allowing multiple test concentrations of iclaprim to be assayed in the presence of various concentrations of the other antibiotic in microtiter plates. The same growth media and conditions were used as described in 3.2 below.
(§2) Two different dilutions were used for iclaprim depending on the MIC determined for the bacterium. […] Iclaprim and the other antibiotic being tested were also dispensed alone in the last row and in the last column, respectively, as controls.
(§3) The Fractional Inhibitory Concentrations (FIC) for each added agent were calculated and used to determine the sum of FIC (ΣFIC) indicative of the synergistic potential of a given combination as described in Veyssier P. (1999), Inhibiteurs de la dihydrofolate reductase, nitrohétérocycles (furanes) et 8-hydroxyquinoleines, pp. 995-1027, in A. Bryskier (ed.), Antibiotiques agents antibatériens et antifongiques, 1st Ed., Ellipses Edition Marketing SA, Paris, the entire disclosure of which is herein incorporated by reference. Synergy was defined whereby the ΣFIC was <0.5, indifference (no synergy nor antagonism) whereby ΣFIC was ≥0.5 but ≤4, and antagonism whereby ΣFIC was >4. Additivity as a special form of indifference was defined whereby the ΣFIC was ≥0.5 but <1, for example as described in Stevens, D L et al. (1998), In vitro antimicrobial effects of various combinations of penicillin and clindamycin against four strains of Streptococcus pyogenes, J. Antimicrob. Chemother. 42: 1266-1268, the entire disclosure of which is herein incorporated by reference.

[2] = tested on: Haemophilus influenzae ATCC 49766; experiment: checkerboard synergy assay with iclaprim; assay type: cell-based; settings: antibiotic in combination with iclaprim; H. influenzae 49766
Experimental: as §1, §2, §3

[3] = tested on: Moraxella catarrhalis RA 21; experiment: checkerboard synergy assay with iclaprim; assay type: cell-based; settings: antibiotic in combination with iclaprim; M. catarrhalis RA 21
Experimental: as §1, §2, §3

[4] = tested on: Staphylococcus aureus ATCC 25923; experiment: checkerboard synergy assay with iclaprim; assay type: cell-based; settings: antibiotic in combination with iclaprim; S. aureus 25923
Experimental: as §1, §2, §3

S. pneumoniae 1/1 [5] = experiment: MIC determination; assay type: cell-based, Streptococcus pneumoniae; settings: Streptococcus pneumoniae; S. pneumoniae 1/1; 18 hours at 37° C., 5% CO2; read-out: Minimum inhibitory concentrations (MIC)
Experimental: (§4) Minimum inhibitory concentration (MIC) determination.
(§5) In order to choose the appropriate concentrations to be tested in the checkerboard experiments, minimum inhibitory concentrations (MICs) were determined first. […] Table 6) in microtiter plates. Stock solutions (10 mg/ml) of reference antibiotics were prepared in DMSO (except for tobramycin, gentamicin, lomefloxacin, tetracycline) and stored at 4° C. The bacteria were grown in Mueller-Hinton Broth (BBL Mueller-Hinton Broth II, cation adjusted). S. pneumoniae was grown in Mueller-Hinton Broth supplemented with 5% (v/v) lysed sheep blood. For the growth of H. influenzae HTM (Haemophilus test medium) was used containing Mueller-Hinton broth, yeast extract ([…], Difco) and supplemented with NAD and hematin (HTM Supplement, Oxoid SR0158E). M. catarrhalis was grown in Brain Heart Infusion medium (Oxoid). The bacteria were incubated for 18 hours at 37° C. in ambient air except for S. pneumoniae, H. influenzae and M. catarrhalis, which were incubated in the presence of 5% CO2. The MIC was determined as the lowest concentration of an individual drug that lead to no visible growth.

S. aureus 101 [6] = experiment: MIC determination; assay type: cell-based, Staphylococcus aureus; settings: Staphylococcus aureus, 101, 18 h; read-out: Minimum inhibitory concentrations (MIC)
Experimental: as §4, §5

[7] = tested on: Klebsiella pneumoniae ATCC 33495; experiment: MIC determination; assay type: cell-based; settings: Klebsiella pneumoniae, ATCC33495; K. pneumonia 33495; 18 hours at 37° C.; read-out: Minimum inhibitory concentrations (MIC)
Experimental: as §4, §5

[8] = tested on: Streptococcus pneumoniae ATCC 49619; experiment: MIC determination; assay type: cell-based; settings: Streptococcus pneumoniae, ATCC49619; S. pneumoniae 49619; 18 hours at 37° C., 5% CO2; read-out: Minimum inhibitory concentrations (MIC)
Experimental: as §4, §5

[9] = tested on: Haemophilus influenzae ATCC 49766; experiment: MIC determination; assay type: cell-based; settings: Haemophilus influenzae, ATCC49766; H. Influenza 49766; 18 hours at 37° C., 5% CO2; read-out: Minimum inhibitory concentrations (MIC)
Experimental: as §4, §5

[10] = tested on: Moraxella catarrhalis RA 21; experiment: MIC determination; assay type: cell-based; settings: Moraxella catarrhalis, RA21; M. catarrhalis RA 21; 18 hours at 37° C., 5% CO2; read-out: Minimum inhibitory concentrations (MIC)
Experimental: as §4, §5

[11] = tested on: Staphylococcus aureus ATCC 25923; experiment: MIC determination; assay type: cell-based; settings: Staphylococcus aureus, ATCC25923; S. aureus 25923; 18 hours at 37° C.; read-out: Minimum inhibitory concentrations (MIC)
Experimental: as §4, §5

S. pneumoniae 1/1 [12] = experiment: checkerboard synergy assay with iclaprim; assay type: cell-based, Streptococcus pneumoniae; settings: antibiotic in combination with iclaprim
Experimental: as §1, §2, §3

[13] = tested on: Streptococcus pneumoniae ATCC 49619; experiment: checkerboard synergy assay with iclaprim; assay type: cell-based; settings: antibiotic in combination with iclaprim; S. pneumoniae 49619
Experimental: as §1, §2, §3

S. aureus 101 [14] = experiment: checkerboard synergy assay with iclaprim; assay type: cell-based, Staphylococcus aureus; settings: antibiotic in combination with iclaprim
Experimental: as §1, §2, §3

Row | Structure (SMILES) | Con (Conclusion) [1] | Con (Conclusion) [2] | Σ FIC [2] | Con (Conclusion) [3] | Σ FIC [4] | MIC (S. pneumoniae 1/1 [5]) [mg/L] | MIC (S. aureus 101 [6]) [mg/L] | MIC [7] [mg/L] | MIC [8] [mg/L] | MIC [9] [mg/L] | MIC [10] [mg/L] | MIC [11] [mg/L] | Σ FIC (S. pneumoniae 1/1 [12]) | Σ FIC [1] | Σ FIC [13] | Σ FIC [3] | Σ FIC (S. aureus 101 [14])
1 | CC1(C)S[C@@H]2[C@H](NC(=O)[C@H](N)c3ccccc3)C(=O)N2[C@H]1C(=O)O [Ampicillin] | Ad (Additivity (Ad)) | Ind (Indifference (Ind)) | 1.13-1.50 | Ind (Indifference (Ind)) | 1.00-1.00 | 16 | > 128 | > 128 | 0.5 | 1 | 16 | 0.5 |  |  |  |  | 
2 | NC(=O)c1cc[n+](CC2=C(C(=O)O)N3C(=O)[C@@H](NC(=O)[C@@H](c4ccccc4)S(=O)(=O)[O-])[C@H]3SC2)cc1 [Cefsulodine, Cefsulodin] | Ind (Indifference (Ind)) | Ind (Indifference (Ind)) | 1.01-1.50 | Ind (Indifference (Ind)) | 1.00-1.25 | > 128 | 64 | > 128 | 16 | > 128 | > 128 | 64 | 1.01-1.50 | 1.01-1.50 | 1.13-1.50 | 1.00-1.25 | 1.00-1.25
3 | NC[C@H]1O[C@H](O[C@H]2[C@H](O)[C@@H](O[C@H]3O[C@H](CO)[C@@H](O)[C@H](N)[C@H]3O)[C@H](N)C[C@@H]2N)[C@H](N)C[C@@H]1O [Tobramycin] | Ad (Additivity (Ad)) | Ind (Indifference (Ind)) | 1.02-1.50 | Ad (Additivity (Ad)) | 0.99-1.25 | 32 | > 128 | 1 | 32 | 0.5 | 4 | 0.5 | 0.63-1.13 | 0.52-1.13 | 1.00-1.25 | 0.63-1.25 | 1.01-1.50
4 | CO[C@H]1/C=C/O[C@@]2(C)Oc3c(C)c(O)c4c(O)c(c(/C=N/N5CCN(C)CC5)c(O)c4c3C2=O)NC(=O)/C(C)=C\C=C\[C@H](C)[C@H](O)[C@@H](C)[C@@H](O)[C@@H](C)[C@H](OC(C)=O)[C@@H]1C [Rifampicin] | Ind (Indifference (Ind)) | Ind (Indifference (Ind)) | 1.12-1.50 | Ad (Additivity (Ad)) |  | 0.063 | 0.031 | > 128 | 0.031 | 0.063 | 0.063 | 0.031 | 0.56-1.12 | 1.01-1.50 | 0.75-0.76 | 0.75-1.12 | 
5 | CCn1cc(C(=O)O)c(=O)c2cc(F)c(N3CCNC(C)C3)c(F)c21 (stereo not drawn) [Lomefloxacin] | Ind (Indifference (Ind)) | Ind (Indifference (Ind)) | 1.06-1.50 | Ad (Additivity (Ad)) | 1.06-1.50 | 8 | 128 | 4 | 8 | 0.125 | 0.5 | 1 | 0.75-1.13 | 1.13-1.50 | 0.75-1.13 | 0.63-1.13 | 1.02-1.50
6 | CC(=O)O[C@H]1C[C@@]2(C)[C@@H](C[C@@H](O)[C@H]3[C@@]4(C)CC[C@@H](O)[C@@H](C)[C@@H]4CC[C@@]32C)/C1=C(\CCC=C(C)C)C(=O)O [Fusidic acid] | Ind (Indifference (Ind)) | Ind (Indifference (Ind)) | 1.06-1.50 | Ind (Indifference (Ind)) | 2.03-2.50 | 8 | 0.125 | > 128 | 4 | 1 | < 0.008 | 0.25 | 1.06-1.50 | 1.00-1.25 | 1.13-1.50 | 1.00-1.00 | 1.06-1.50
7 | O=C(N[C@H](CO)[C@H](O)c1ccc([N+](=O)[O-])cc1)C(Cl)Cl [Chloramphenicol] | Ind (Indifference (Ind)) | Ind (Indifference (Ind)) | 1.06-1.50 | Ind (Indifference (Ind)) | 1.13-2.50 | 16 | 64 | > 128 | 4 | 0.5 | 0.5 | 8 |  | 1.01-1.50 | 0.75-1.25 | 1.25-1.50 | 0.63-1.13
8 | CO/N=C(\C(=O)N[C@@H]1C(=O)N2C(C(=O)O)=C(COC(C)=O)CS[C@H]12)c1csc(N)n1 [Cefotaxime] | Ind (Indifference (Ind)) | Ad (Additivity (Ad)) |  | Ad (Additivity (Ad)) | 1.03-1.50 | 8 | 32 | 0.5 | 0.25 | 0.063 | 4 | 4 | 0.63-1.06 | 1.13-1.50 |  | 0.56-1.03 | 1.06-1.50
